The test deals with CDK2 (UniProt P24941). The test is described as follows: Enzyme Assay. The settings on record: concentration not given here.

Compound `O=S(=O)(Nc1ccc2[nH]nc(-c3cc4ccccc4[nH]3)c2c1)c1cccc(F)c1` yielded an inhibition of 99%. `CS(=O)(=O)c1ccccc1S(=O)(=O)Nc1ccc2[nH]nc(-c3cc4ccccc4[nH]3)c2c1` had an inhibition of 99%. To `Cc1cc(C)c(S(=O)(=O)Nc2ccc3[nH]nc(-c4ccccc4)c3c2)c(C)c1` belongs 79%. With `CS(=O)(=O)c1ccccc1S(=O)(=O)Nc1ccc2[nH]nc(-c3cccc(O)c3)c2c1` the figure was 73%.

`O=S(=O)(Nc1ccc2[nH]nc(-c3ccccc3)c2c1)c1cccc2nonc12` yielded an inhibition of 67%. With `CCc1ccc(-c2n[nH]c3ccc(NS(=O)(=O)c4ccccc4S(C)(=O)=O)cc23)cc1` the figure was 65%; with `CS(=O)(=O)c1ccccc1S(=O)(=O)Nc1ccc2[nH]nc(-c3cccc(Cl)c3Cl)c2c1`, 0%; with `CS(=O)(=O)c1ccccc1S(=O)(=O)Nc1ccc2[nH]nc(-c3ccc(I)cc3)c2c1`, 20%. With `CS(=O)(=O)c1ccccc1S(=O)(=O)Nc1ccc2[nH]nc(-c3cc(Cl)ccc3Cl)c2c1` the figure was 27%; with `CN(C)c1c(F)c(F)c(S(=O)(=O)Nc2ccc3[nH]nc(-c4cc5ccccc5[nH]4)c3c2)c(F)c1F`, 53%. With `CCOc1ccccc1-c1n[nH]c2ccc(NS(=O)(=O)c3ccccc3S(C)(=O)=O)cc12` the figure was 31%. As for `O=C(Nc1n[nH]c2ccc(NS(=O)(=O)c3cc(F)cc(F)c3)cc12)c1ccccc1`, the inhibition was 82%.

`CS(=O)(=O)c1ccccc1S(=O)(=O)Nc1ccc2[nH]nc(-c3cccc(OCc4ccccc4)c3)c2c1` registered an inhibition of 0%.

The compound `CS(=O)(=O)c1ccccc1S(=O)(=O)Nc1ccc2[nH]nc(-c3cc(F)cc(F)c3)c2c1` registered an inhibition of 74%. Compound `Nc1ccc(S(=O)(=O)Nc2ccc3[nH]nc(-c4ccccc4)c3c2)cc1` yielded an inhibition of 70%.

In turn, `Cc1ccc(-c2n[nH]c3ccc(NS(=O)(=O)c4ccccc4S(C)(=O)=O)cc23)cc1F` gave an inhibition of 70%.

For the compound `CS(=O)(=O)c1ccccc1S(=O)(=O)Nc1ccc2[nH]nc(-c3ccc(Cl)cc3Cl)c2c1`, the inhibition stood at 23%. `CS(=O)(=O)c1ccccc1S(=O)(=O)Nc1ccc2[nH]nc(-c3cccc(OC(F)(F)F)c3)c2c1`: the inhibition worked out at 60%. To `CSc1ccccc1-c1n[nH]c2ccc(NS(=O)(=O)c3ccccc3S(C)(=O)=O)cc12` belongs 19%. To `CS(=O)(=O)c1ccccc1S(=O)(=O)Nc1ccc2[nH]nc(-c3ccc(-c4ccccc4)cc3)c2c1` belongs 41%. With `CS(=O)(=O)c1ccccc1S(=O)(=O)Nc1ccc2[nH]nc(-c3cc(Cl)cc(Cl)c3)c2c1` the figure was 50%; with `O=S(=O)(Nc1ccc2[nH]nc(-c3ccc(O)cc3)c2c1)c1ccccc1`, 89%. In turn, `CS(=O)(=O)c1ccccc1S(=O)(=O)Nc1ccc2[nH]nc(-c3ccc4[nH]ccc4c3)c2c1` had an inhibition of 73%. `CS(=O)(=O)c1ccccc1S(=O)(=O)Nc1ccc2[nH]nc(-c3cccc(Br)c3)c2c1` had an inhibition of 73%. To `CS(=O)(=O)c1ccccc1S(=O)(=O)Nc1ccc2[nH]nc(-c3ccc(CO)cc3)c2c1` belongs 73%; to `CS(=O)(=O)c1ccccc1S(=O)(=O)Nc1ccc2[nH]nc(-c3ccc4c(c3)OCO4)c2c1`, 76%.

Compound `O=C(NCc1ccc(S(=O)(=O)Nc2ccc3[nH]nc(-c4ccccc4)c3c2)s1)c1ccccc1` showed an inhibition of 40%. To `O=S(=O)(Nc1ccc2[nH]nc(-c3ccccc3)c2c1)c1ccccc1F` belongs 81%; to `CS(=O)(=O)c1ccccc1S(=O)(=O)Nc1ccc2[nH]nc(/C=C/c3ccccc3)c2c1`, 96%; to `CS(=O)(=O)c1ccccc1S(=O)(=O)Nc1ccc2[nH]nc(-c3cc(C(F)(F)F)cc(C(F)(F)F)c3)c2c1`, 28%. In turn, `CS(=O)(=O)c1ccccc1S(=O)(=O)Nc1ccc2[nH]nc(-c3cccc(F)c3)c2c1` displayed an inhibition of 69%. To `CS(=O)(=O)c1ccccc1S(=O)(=O)Nc1ccc2[nH]nc(-c3cccnc3)c2c1` belongs 88%.

In turn, `CS(=O)(=O)c1ccccc1S(=O)(=O)Nc1ccc2[nH]nc(-c3cccc([N+](=O)[O-])c3)c2c1` gave an inhibition of 82%. With `CS(=O)(=O)c1ccccc1S(=O)(=O)Nc1ccc2[nH]nc(-c3ccc(Br)cc3F)c2c1` the figure was 65%; with `CC(C)(C)c1ccc(-c2n[nH]c3ccc(NS(=O)(=O)c4ccccc4S(C)(=O)=O)cc23)cc1`, 0%; with `O=S(=O)(Nc1ccc2[nH]nc(-c3ccccc3)c2c1)c1ccccc1OC(F)(F)F`, 74%. To `COc1cccc(-c2n[nH]c3ccc(NS(=O)(=O)c4ccccc4S(C)(=O)=O)cc23)c1` belongs 67%; to `COC(=O)c1cccc(-c2n[nH]c3ccc(NS(=O)(=O)c4ccccc4S(C)(=O)=O)cc23)c1`, 64%; to `Nc1n[nH]c2ccc(NS(=O)(=O)c3c(F)cccc3F)cc12`, 12%. With `Cc1cc2[nH]nc(-c3ccccc3)c2cc1NS(=O)(=O)c1ccccc1S(C)(=O)=O` the figure was 62%; with `CS(=O)(=O)c1ccc(F)cc1S(=O)(=O)Nc1ccc2[nH]nc(-c3ccccc3)c2c1`, 87%; with `CS(=O)(=O)c1ccccc1S(=O)(=O)Nc1ccc2[nH]nc(-c3cccc(C#N)c3)c2c1`, 90%. In turn, `O=S(=O)(Nc1ccc2[nH]nc(-c3cc4ccccc4[nH]3)c2c1)c1ccccc1` showed an inhibition of 100%. The compound `CS(=O)(=O)c1ccccc1S(=O)(=O)Nc1ccc2[nH]nc(-c3cccc(F)c3F)c2c1` registered an inhibition of 50%. To `CS(=O)(=O)c1ccccc1S(=O)(=O)Nc1ccc2[nH]nc(-c3cccc(C(F)(F)F)c3)c2c1` belongs 81%; to `Cc1ccc(-c2n[nH]c3ccc(NS(=O)(=O)c4ccccc4S(C)(=O)=O)cc23)cc1N`, 78%; to `CS(=O)(=O)c1ccccc1S(=O)(=O)Nc1ccc2[nH]nc(-c3ccc(OCc4ccccc4)c(F)c3)c2c1`, 41%.

`C=Cc1ccc(-c2n[nH]c3ccc(NS(=O)(=O)c4ccccc4S(C)(=O)=O)cc23)cc1` registered an inhibition of 77%. To `O=S(=O)(Nc1ccc2[nH]nc(-c3ccccc3)c2c1)c1ccc(F)c(F)c1` belongs 67%; to `COc1ccc(-c2n[nH]c3ccc(NS(=O)(=O)c4ccccc4S(C)(=O)=O)cc23)c(OC)c1`, 27%; to `CS(=O)(=O)c1ccccc1S(=O)(=O)Nc1ccc2[nH]nc(-c3ccc(C(=O)O)cc3)c2c1`, 61%.

Take `CS(=O)(=O)c1ccccc1S(=O)(=O)Nc1ccc2[nH]nc(N)c2c1`: the inhibition is 72%. With `CS(=O)(=O)c1ccccc1S(=O)(=O)Nc1ccc2[nH]nc(-c3ccccc3-c3ccccc3)c2c1` the figure was 27%. With `CCSc1ccc(-c2n[nH]c3ccc(NS(=O)(=O)c4ccccc4S(C)(=O)=O)cc23)cc1` the figure was 77%. With `C[Si](C)(C)C#Cc1cccc(-c2n[nH]c3ccc(NS(=O)(=O)c4ccccc4S(C)(=O)=O)cc23)c1` the figure was 7%; with `CS(=O)(=O)c1ccccc1S(=O)(=O)Nc1ccc2[nH]nc(-c3ccc(Cl)c(Cl)c3)c2c1`, 66%; with `CC1(C)[C@H]2CC[C@]1(CS(=O)(=O)Nc1ccc3[nH]nc(-c4ccccc4)c3c1)C(=O)C2`, 30%. `CS(=O)(=O)c1ccccc1S(=O)(=O)Nc1ccc2[nH]nc(-c3ccccc3N)c2c1` came in with an inhibition of 50%. `CC(C)c1cc(C(C)C)c(S(=O)(=O)Nc2ccc3[nH]nc(-c4ccccc4)c3c2)c(C(C)C)c1` yielded an inhibition of 50%. As for `COc1ccc(-c2n[nH]c3ccc(NS(=O)(=O)c4ccccc4S(C)(=O)=O)cc23)cc1`, the inhibition is 93%.

The compound `Cc1ccc(-c2n[nH]c3ccc(NS(=O)(=O)c4ccccc4S(C)(=O)=O)cc23)cc1` had an inhibition of 66%. With `O=S(=O)(Nc1ccc2[nH]nc(-c3ccccc3)c2c1)C1CCNCC1` the figure was 13%; with `CS(=O)(=O)c1ccccc1S(=O)(=O)Nc1ccc2[nH]nc(/C=C/c3ccc(F)cc3)c2c1`, 95%; with `Cc1cccc(-c2n[nH]c3ccc(NS(=O)(=O)c4ccccc4S(C)(=O)=O)cc23)c1`, 71%. To `CS(=O)(=O)c1ccccc1S(=O)(=O)Nc1ccc2[nH]nc(-c3ccc(Cl)cc3)c2c1` belongs 96%; to `Cc1ccc(-c2n[nH]c3ccc(NS(=O)(=O)c4ccccc4S(C)(=O)=O)cc23)cc1C`, 75%.

Take `O=S(=O)(Nc1ccc2[nH]nc(-c3cc4ccccc4[nH]3)c2c1)c1ccccc1OC(F)(F)F`: the inhibition stood at 94%. With `COc1ccccc1-c1n[nH]c2ccc(NS(=O)(=O)c3ccccc3S(C)(=O)=O)cc12`, the inhibition was 50%. To `CCCCS(=O)(=O)Nc1ccc2[nH]nc(-c3ccccc3)c2c1` belongs 30%. `CN(C)c1ccc(-c2n[nH]c3ccc(NS(=O)(=O)c4ccccc4S(C)(=O)=O)cc23)cc1` had an inhibition of 81%. With `CS(=O)(=O)c1ccccc1S(=O)(=O)Nc1ccc2[nH]nc(Nc3ccccc3)c2c1` the figure was 100%. To `COc1ccc(OC)c(S(=O)(=O)Nc2ccc3[nH]nc(-c4ccccc4)c3c2)c1` belongs 51%; to `CS(=O)(=O)c1ccccc1S(=O)(=O)Nc1ccc2[nH]nc(-c3ccc(Cl)s3)c2c1`, 55%; to `N#Cc1cccc(S(=O)(=O)Nc2ccc3[nH]nc(-c4ccccc4)c3c2)c1`, 75%. Compound `CS(=O)(=O)c1ccccc1S(=O)(=O)Nc1ccc2[nH]nc(-c3ccccc3Cl)c2c1` registered an inhibition of 52%.

As to `CSc1ccc(-c2n[nH]c3ccc(NS(=O)(=O)c4ccccc4S(C)(=O)=O)cc23)cc1`, the inhibition was determined as 84%. Compound `N#Cc1ccccc1S(=O)(=O)Nc1ccc2[nH]nc(-c3ccccc3)c2c1` came in with an inhibition of 69%. To `CS(=O)(=O)c1ccccc1S(=O)(=O)Nc1ccc2[nH]nc(-c3ccc(Oc4ccccc4)cc3)c2c1` belongs 20%; to `CS(=O)(=O)c1ccccc1S(=O)(=O)Nc1ccc2[nH]nc(-c3ccc(N)cc3)c2c1`, 85%; to `CS(=O)(=O)c1ccc(-c2n[nH]c3ccc(NS(=O)(=O)c4ccccc4S(C)(=O)=O)cc23)cc1`, 75%.

Source of the values: the Kinase Knowledgebase extract (Sharma et al. 2016).
